{"source": "patent US20100260694A1", "about": "“Methionine Sulfoxide Peptide, Compositions And Methods Of Use” (priority 2009, published 2010)", "key": {"[1]": {"tested_on": "Msr", "test": "Msr expression in NHEK by RT-PCR and gel electrophoresis", "format": "cell-based, human", "conditions": "for level of Msr compared to a housekeeping gene: keratinocytes, RT-PCR", "description": "The first material tried was oxidized methionine (the sulfoxide form). […] However, in an experiment performed in February of 2004, an oxidized polypeptide gave very good results. Investigations continued along those lines.\n(§1) NHEK cells were incubated overnight in culture medium (control) and in culture medium containing oxidized peptide and in culture medium containing unoxidized peptide (control). Concentrations (mg/mL) of the oxidized peptide included 0.01, 0.1 and 0.25. The unoxidized peptide (i.e. Met-enkephalin) was tested only at 0.25 mg/mL. After incubation, mRNA was extracted from the cells and cDNA was prepared by reverse transcription polymerase chain reaction (RT-PCR). Samples were probed for Msr via gel electrophoresis using β-microglobulin as a control."}, "[2]": {"tested_on": "Msr", "test": "Msr in NHEK, confirmation by Western blotting", "format": "cell-based, human", "conditions": "overnight incubation", "description": "as §1"}, "[3]": {"biological_target": "T1, elastase (Sus scrofa, UniProt P00772)", "T1 construct": "purchased Molecular Probes", "T1 sequence (P00772 27-266)": "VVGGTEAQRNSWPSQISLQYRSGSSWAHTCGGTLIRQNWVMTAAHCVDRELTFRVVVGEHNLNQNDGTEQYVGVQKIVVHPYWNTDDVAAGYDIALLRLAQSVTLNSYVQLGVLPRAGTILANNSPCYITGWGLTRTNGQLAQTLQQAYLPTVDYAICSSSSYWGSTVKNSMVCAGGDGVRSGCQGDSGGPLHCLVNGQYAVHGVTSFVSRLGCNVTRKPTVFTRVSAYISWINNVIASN", "test": "Elastase activity assay (Molecular Probes) adapted for inhibition with α1-antitrypsin", "format": "biochemical", "description": "(§2) Methods: An elastase assay from Molecular Probes was utilized and adapted for inhibition with α1-antitrypsin. Fluorescence was measured by excitation at 485 nm and emission at 525 nm in a CytoFluor plate reader.\nThis was achieved by incubating 0.1 mg/ml elastin and 0.05 units/ml elastase with α1-antitrypsin in a dose-dependent manner (2.5-50 ug/sample). The results are shown in FIG. 8, where con=control; E=elastase; I=inhibitor (included with assay); AT=α1-antitrypsin.\nThis was done by oxidizing 10 μg of α1-antitrypsin with hydrogen peroxide.\n(§3) This was achieved by incubating the A1AT that had been oxidized in 30 mM H2O2 with 0.7 mg/ml msrA and 10 mM DTT for 2 hours. […] We start with 100% elastase. As before, α1-antitrypsin (AT) removes about 90% of the elastase activity (bar labeled Elastase+AT)."}, "[4]": {"tested_on": "keratinocytes", "test": "Cytotoxicity in keratinocytes", "format": "cell-based", "conditions": "various concentrations, epidermal cells / keratinocytes"}, "[5]": {"tested_on": "Epidermal Full Thickness 200 (EFT 200) living skin models", "test": "Sunburn Cell production in UVB-irradiated EFT 200 living skin models", "format": "cell-based", "conditions": "1 mg/ml for 48 hours, then 100 mJ/cm^2 UVB", "description": "Methods: Epidermal Full Thickness 200 (EFT 200) living skin models were obtained from MatTek and incubated for 48 hours in media with or without 1 mg/ml of the MetO-enkephalin. The oxidized peptide can be stored at room temperature. Because the peptide is already oxidized, it has relative low reactivity in storage. Two ml of media were added beneath the living skin models, which were situated on a transwell membrane to allow the maintenance of an air/aqueous interface. After 48 hours, the living skin models were exposed to 100 mJ/cm^2 UVB, re-fed, and incubated overnight. The next day, the samples were fixed in 10% formalin and sent to Paragon Bioservices for histological sectioning and H&E staining. Five contiguous microscopic fields for each section were evaluated for the presence of SBC by counting the number of SBC and uninvolved cells and expressing SBC as a percentage of the total. Sunburn Cells are characterized by eosinophilic staining of the cytoplasm and pyknotic nuclei (condensed chromatin)."}, "[6]": {"test": "UV spectrum of the peptide", "format": "physicochemical", "conditions": "at 290 nm"}, "[7]": {"biological_target": "oxidized α1-antitrypsin (Homo sapiens, UniProt P01009)", "sequence (P01009 25-418)": "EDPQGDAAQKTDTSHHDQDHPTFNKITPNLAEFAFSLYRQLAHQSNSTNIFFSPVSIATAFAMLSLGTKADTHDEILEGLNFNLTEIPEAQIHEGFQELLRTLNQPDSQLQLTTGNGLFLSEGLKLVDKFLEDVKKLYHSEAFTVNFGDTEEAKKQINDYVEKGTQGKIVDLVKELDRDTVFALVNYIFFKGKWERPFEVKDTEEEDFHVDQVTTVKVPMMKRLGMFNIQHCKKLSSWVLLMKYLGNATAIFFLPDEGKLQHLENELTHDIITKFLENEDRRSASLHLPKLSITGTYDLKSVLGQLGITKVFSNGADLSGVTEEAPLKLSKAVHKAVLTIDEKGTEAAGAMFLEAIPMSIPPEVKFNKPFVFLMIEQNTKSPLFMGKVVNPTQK", "test": "Reversal of α1-antitrypsin oxidation by msrA, read out in elastase activity assay", "format": "biochemical", "conditions": "oxidized A1AT incubated with 0.7 mg/mL MsrA and 10 mM DTT for 2 hours", "description": "as §2, §3"}}, "data": [{"molecule": "CSCC[C@H](NC(=O)[C@@H](Cc1ccccc1)NC(=O)CNC(=O)CNC(=O)[C@H](N)Cc1ccc(O)cc1)C(=O)O", "note": "[Met-enkephalin, Met- enkephalin, reference compound]", "values": [{"measurement": "increase in Msr expression", "setting": "[1]; NHEK, overnight incubation, 0.25 mg/mL", "value": "no significant increase"}, {"measurement": "Msr mRNA in treated cells by Western blotting", "setting": "[2]", "value": "no significant increases of Msr mRNA"}]}, {"molecule": "C[S+]([O-])CC[C@H](N)C(=O)O", "note": "(some centres unmarked) [oxidized methionine, methionine sulfoxide]", "values": [{"measurement": "level of Msr compared to a housekeeping gene", "setting": "[1]", "value": "not significantly raised"}]}, {"molecule": "ATox: α1-antitrypsin oxidized in 30 mM H2O2", "values": [{"measurement": "elastase activity with oxidized α1-antitrypsin", "setting": "[3]; bar Elastase+ATox, FIG. 10, oxidized in 30 mM H2O2", "value": "all of the elastase activity returns"}]}, {"molecule": "Oxidized bovine serum albumin: Oxidized bovine serum albumin, a comparatively large protein", "values": [{"measurement": "level of Msr compared to a housekeeping gene", "setting": "[1]", "value": "without success"}]}, {"molecule": "Tyr - Gly - Gly - Phe - MetO [MetO-enkephalin]", "values": [{"measurement": "cytotoxicity", "setting": "[4]", "value": "low cytotoxicity"}, {"measurement": "average increase in Msr expression", "setting": "[1]; NHEK, overnight incubation, oxidized peptide concentration 0.01%", "value": 18, "unit": "%"}, {"measurement": "average increase in Msr expression", "setting": "[1]; NHEK, overnight incubation, oxidized peptide concentration 0.1%", "value": 28, "unit": "%"}, {"measurement": "average increase in Msr expression", "setting": "[1]; NHEK, overnight incubation, oxidized peptide concentration 0.25%", "value": 25.4, "unit": "%"}, {"measurement": "average percent reduction in SBC from both trials", "setting": "[5]", "value": 31.1, "unit": "%"}, {"measurement": "extinction coefficient", "setting": "[6]", "value": 145.5}, {"measurement": "k-value of absorbance", "setting": "[6]", "value": 0.24}, {"measurement": "Msr mRNA in treated cells by Western blotting", "setting": "[2]", "value": "increases of Msr mRNA"}]}, {"molecule": "α1-antitrypsin: serin protease inhibitor made in the liver, inhibits a wide variety of proteases", "values": [{"measurement": "elastase inhibition after oxidation with H2O2", "setting": "[3]; 10 μg α1-antitrypsin oxidized with 30 mM H2O2, 3 hours, ambient temperature", "value": "almost all elastase inhibition provided by α1-antitrypsin, is lost"}, {"measurement": "elastase activity (fluorescence), dose dependence", "setting": "[3]; 0.1 mg/ml elastin, 0.05 units/ml elastase, α1-antitrypsin 2.5-50 ug/sample", "value": "Fluorescence decreases with increasing concentration of α1-antitrypsin"}, {"measurement": "elastase activity removed", "setting": "[3]; bar Elastase+AT, FIG. 10", "value": "about 90%"}]}, {"molecule": "MsrA: form of Msr involved in the reduction of the S-stereoisomer (protein, UniProt Q9UJ68 24-235, looked up) Mitochondrial peptide …: GNSASNIVSPQEALPGRKEQTPVAAKHHVNGNRTVEPFPEGTQMAVFGMGCFWGAERKFWVLKGVYSTQVGFAGGYTSNPTYKEVCSEKTGHAEVVRVVYQPEHMSFEELLKVFWENHDPTQGMRQGNDHGTQYRSAIYPTSAKQMEAALSSKENYQKVLSEHGFGPITTDIREGQTFYYAEDYHQQYLSKNPNGYCGLGGTGVSCPVGIKK", "values": [{"measurement": "re-inhibition of elastase activity", "setting": "[7]", "value": "over 59%"}]}]}
